{
  "source": "patent US8486924B2",
  "about": "“Taxane delivery system” (Celator Pharmaceuticals, Inc., priority 2007, dated 2013)",
  "key": {"[1]": {"conditions": "prodrug/POPC/2.5kPS3k (1:1:2) nanoparticles in water; volume weighted average", "experimental": "The prodrug, co-lipid and stabilizer polymers (typically on a 1:1:2 w/w basis) were dissolved in ethanol/THF (4:1) at a concentration of 40 mg/ml. The solvent was rapidly diluted with water using a four port CVIJ mixer^13, 14 with flow rates set at […] (solvent/water/water/water). Flow rates were controlled using Harvard Apparatus PHD2000 syringe pumps. The resultant solution was then dialyzed against water to remove residual solvent. […] When higher concentrations were required the dialyzed solution was diluted with equi-volumes of 600 mM sucrose and then concentrated using a 100 kD, 0.5 mm lumen, 60 cm path length MidGee hoop cartridge (GE Healthcare Life Sciences, Piscataway, N.J.) with a peristaltic pump. Particle size was determined using a Malvern Zetasizer Nano-ZS particle sizer and reported as volume weighted data.\nFormulations were composed of a prodrug, a co-lipid and an amphipathic stabilizer in a weight ratio of 1:1:2, respectively at a concentration of 40 mg per mL of solvent. […] Poly(ethylene glycol)-b-polystyrene (2kPS3k or 2.5kPS3k) was used as the amphipathic stabilizer. Other stabilizers may also be used."}, "[2]": {"conditions": "co-lipid POPC, prodrug/co-lipid/2.5kPS3k (1:1:2), vortexing 30 seconds", "experimental": "The physical stability of formulations was investigated by examining changes in particle size after vortexing prodrug/co-lipid/2.5kPS3k (1:1:2) nanoparticles in water, 150 mM saline or 300 mM sucrose (Table 1). […] The increase in particle size was monitored by using dynamic light scattering to measure the Z average (the intensity weighted mean size of the particle distribution) value for samples before and after vigorous vortexing. The change in the Zave value was used as surrogate readout for the formation of aggregates or precipitates resulting from mechanical instability, where a higher value for ΔZave indicated a higher level of aggregation or precipitation (Table 1)."}, "[3]": {"system": "HT29 human colon carcinoma cells", "experimental": "Female athymic nude mice (7-8 weeks old) were inoculated subcutaneously with 100 μl HT29 human colon carcinoma cells (2×10^6 cells) using a 26 gauge needle. Mice were randomly grouped (n=6/group) with a mean tumor size between 80 and 120 mg prior to first treatment. […] Subsequent injections were made according to the designated schedule. Tumor length and width measurements, body weight and in life observations were recorded 2-3 times per week. Tumor weight was calculated according to the formula (L×W^2)/2.\nThe relative efficacies of nanoparticle formulations of 1, 2, 4, 5, 6 and 7 were determined in the HT29 model using a 36 μmol/kg dose on a Q4Dx6 schedule (FIG. 3). Saline was used as a negative control.\n(§1) The activity of 7 in POPC/2.5kPS3k nanoparticle formulations relative to paclitaxel was determined by comparing the efficacy of doses ranging from 0.25 to 3 mole equivalents of paclitaxel (FIG. 4) in the HT29 tumor model. Taxol® dosed at 23 μmol/kg on a Q2Dx5 schedule was used as a positive control.\nThe tumor growth data was analyzed by two methods to determine what dose of 7 would be equivalent to the Taxol® positive control."}, "[4]": {"experiment": "Maximum tolerated dose on Q2D schedule in HT29 tumor model", "format": "in vivo, mice", "conditions": "POPC/2.5kPS3k nanoparticle formulation; Q2Dx5 schedule", "experimental": "as §1, with “control. The dosing regime was chosen since the greatest efficacy for 7 was observed on a Q2D schedule, which was also optimal for Taxol®, and the maximum tolerated treatment course at this Taxol® dose was 5 injections. The maximum tolerate dose of 7 on this schedule was approximately 3 paclitaxel equivalents (69 μmol/kg).” for “control.”"}, "[5]": {"system": "MCF-7 human tumor cell line", "conditions": "read-out: IC50 values MCF-7; prodrug/POPC/2kPS3k (1:1:2) formulations; 72 hours; MTT; ± SD"}, "[6]": {"conditions": "mouse, in vivo", "quoted_text": "Athymic nude mice (n=3/timepoint) were injected iv with test samples (10 μl/g body weight, to a maximum of 250 μl). Blood was collected at the designated time point by cardiac puncture and placed into EDTA coated microtainer tubes (BD Biosciences). The tubes were centrifuged at 2800 rpm for 10 minutes. Plasma was recovered and 50 μl aliquots analyzed by HPLC for drug content. Samples containing ^3H—CHE (50 μl) were diluted with PicoFluor40™ scintillation fluid (Packard) and counted on a Beckman-Coulter LS 6500 Multipurpose scintillation counter. The total drug (counts) per mouse in the blood compartment was calculated assuming a plasma volume of 0.04125 mL per gram of body weight.\nElimination studies tracking both the prodrug and the particle were conducted to obtain a more accurate description of the partitioning behavior of the prodrugs in vivo (FIG. 1). Prodrug elimination was followed by HPLC, while particle elimination rates were determined by labeling nanoparticles with tritiated cholesterylhexadecyl ether (3H—CHE).\nFormulations comprised of 1/VES/2kPS3k (1:1:2) and 2/VES/2kPS3k (1:1:2) were labeled with trace amounts of ^3H—CHE and plasma levels of both the label and prodrug were monitored in Foxn1^nu mice (FIG. 1, Panel A).\nEffect of prodrug partitioning on plasma drug elimination was determined. The prodrug panel was screened using prodrug/POPC/2kPS3k (1:1:2) nanoparticles in Foxn1^nu mice to determine elimination rates for the different prodrug conjugates (FIG. 2). […] Conjugates were formulated at a concentration of 0.7 mg/mL.\nIn order to estimate the partitioning half-life for each prodrug, it was assumed that 1 tracked the particle elimination rate based on the results discussed above. The elimination of all other prodrugs were then fitted to four parameter double exponential decay curves and normalized against 1."}, "[7]": {"system": "A2780 human tumor cell line", "experiment": "MTT growth inhibition, A2780 cells, 72 hours", "conditions": "read-out: IC50 values A2780, prodrug/POPC/2kPS3k (1:1:2) formulations, ± SD"}},
  "data": [
    {"smiles": "CCCCCCCCCCCCCCCCCCCCCCOC(=O)COCC(=O)OC(C(=O)OC1CC2(O)C(OC(=O)c3ccccc3)C3C4(OC(C)=O)COC4CC(O)C3(C)C(=O)C(OC(C)=O)C(=C1C)C2(C)C)C(NC(=O)c1ccccc1)c1ccccc1", "note": "(stereo not shown) [Prodrug 7, 2′-O-(5″-O-docosanyldiglycoloyl)-paclitaxel]", "values": [
      {"measurement": "Diameter", "setting": "[1]", "result": 23, "unit": "nm"},
      {"measurement": "ΔZave 150 mM saline", "setting": "[2]; 150 mM saline", "result": 24, "unit": "nm"},
      {"measurement": "ΔZave 300 mM sucrose", "setting": "[2]; 300 mM sucrose", "result": 0, "unit": "nm"},
      {"measurement": "ΔZave water", "setting": "[2]; water", "result": 18, "unit": "nm"},
      {"measurement": "dose achieving parity with Taxol (delay in reaching tumor size of 125 mg from start of treatment)", "setting": "[3]; HT29, Q2Dx5, fitted curve, normalized to Taxol 23 μmol/kg", "result": "1.75 dose equivalents of paclitaxel"},
      {"measurement": "dose achieving parity with Taxol (delay in reaching tumor size of 300 mg relative to saline)", "setting": "[3]; HT29, Q2Dx5, linear dose response, normalized to Taxol 23 μmol/kg", "result": 1.65, "unit": "paclitaxel equivalents"},
      {"measurement": "dose achieving equivalent efficacy to Taxol at MTD", "setting": "[3]; HT29, titration 0.25x to 3x paclitaxel equivalents", "result": "approximately 1.7 paclitaxel equivalents"},
      {"measurement": "tumor size at day 60", "setting": "[3]; HT29, treated at MTD, Q2Dx5", "result": "below 50 mg"},
      {"measurement": "treatment induced delay in reaching a mean tumor size of 500 mm^3", "setting": "[3]; HT29 model, 36 μmol/kg, Q4Dx6, nanoparticle formulations", "result": 17, "unit": "days"},
      {"measurement": "maximum tolerated dose", "setting": "[4]", "result": 69, "unit": "µmol/kg"},
      {"measurement": "IC50", "setting": "[5]", "result": "23.5 ± 1.3", "unit": "nM"},
      {"measurement": "partitioning half life", "setting": "[6]", "result": "~10", "unit": "h"},
      {"measurement": "IC50", "setting": "[7]", "result": "29.5 ± 5.2", "unit": "nM"}
    ]}
  ]
}
